Measured values as given in ChEMBL document CHEMBL1142486, “Anti-inflammatory activities of furanoditerpenoids and other constituents from Fibraurea tinctoria” (2008).

Assays:
Mus musculus [1] = assay: Antiinflammatory activity against carrageenan-induced paw edema in ICR mouse at 50 mg/kg, ip administered 30 mins before carrageenan challenge assessed after 0.5 hrs; type: functional; settings: route intraperitoneal
Mus musculus [2] = assay: Antiinflammatory activity against carrageenan-induced paw edema in ICR mouse at 50 mg/kg, ip administered 30 mins before carrageenan challenge assessed after 1 hr; type: functional; settings: route intraperitoneal
Mus musculus [3] = assay: Antiinflammatory activity against carrageenan-induced paw edema in ICR mouse at 50 mg/kg, ip administered 30 mins before carrageenan challenge assessed after 2 hrs; type: functional; settings: route intraperitoneal
Mus musculus [4] = assay: Antiinflammatory activity against carrageenan-induced paw edema in ICR mouse at 50 mg/kg, ip administered 30 mins before carrageenan challenge assessed after 3 hrs; type: functional; settings: route intraperitoneal
Mus musculus [5] = assay: Antiinflammatory activity against carrageenan-induced paw edema in ICR mouse at 50 mg/kg, ip administered 30 mins before carrageenan challenge assessed after 4 hrs; type: functional; settings: route intraperitoneal
Mus musculus [6] = assay: Antiinflammatory activity against carrageenan-induced paw edema in ICR mouse at 50 mg/kg, ip administered 30 mins before carrageenan challenge assessed after 5 hrs; type: functional; settings: route intraperitoneal
Mus musculus [7] = assay: Antiinflammatory activity against carrageenan-induced paw edema in ICR mouse at 100 mg/kg, ip administered 30 mins before carrageenan challenge assessed after 0.5 hrs; type: functional; settings: route intraperitoneal
Mus musculus [8] = assay: Antiinflammatory activity against carrageenan-induced paw edema in ICR mouse at 100 mg/kg, ip administered 30 mins before carrageenan challenge assessed after 1 hr; type: functional; settings: route intraperitoneal
Mus musculus [9] = assay: Antiinflammatory activity against carrageenan-induced paw edema in ICR mouse at 100 mg/kg, ip administered 30 mins before carrageenan challenge assessed after 2 hrs; type: functional; settings: route intraperitoneal
Mus musculus [10] = assay: Antiinflammatory activity against carrageenan-induced paw edema in ICR mouse at 100 mg/kg, ip administered 30 mins before carrageenan challenge assessed after 3 hrs; type: functional; settings: route intraperitoneal
Mus musculus [11] = assay: Antiinflammatory activity against carrageenan-induced paw edema in ICR mouse at 100 mg/kg, ip administered 30 mins before carrageenan challenge assessed after 4 hrs; type: functional; settings: route intraperitoneal
Mus musculus [12] = assay: Antiinflammatory activity against carrageenan-induced paw edema in ICR mouse at 100 mg/kg, ip administered 30 mins before carrageenan challenge assessed after 5 hrs; type: functional; settings: route intraperitoneal
RAW264.7 = assay: Inhibition of LPS-induced nitric oxide production in mouse RAW264.7 cells assessed as nitrite levels in supernatant after 24 hrs by griess assay; type: functional, cell-based

| Structure (SMILES) | Activity (Mus musculus [1]) | Activity (Mus musculus [2]) | Activity (Mus musculus [3]) | Activity (Mus musculus [4]) | Activity (Mus musculus [5]) | Activity (Mus musculus [6]) | Activity (Mus musculus [7]) | Activity (Mus musculus [8]) | Activity (Mus musculus [9]) | Activity (Mus musculus [10]) | Activity (Mus musculus [11]) | Activity (Mus musculus [12]) | Activity (RAW264.7) |
| --- | --- | --- | --- | --- | --- | --- | --- | --- | --- | --- | --- | --- | --- |
| C[C@@]12C[C@H](c3ccoc3)OC(=O)C1=CC[C@]1(C)[C@H]2[C@H]2C=C[C@]1(O)C(=O)O2 [FIBLEUCIN] | 11.8% | 13.12% | 17.97% | 21.61% | 25.29% | 25.6% | 14.56% | 17.79% | 20.68% | 24.44% | 26.19% | 26.02% | – |
| C[C@@]12C[C@@H](c3ccoc3)OC(=O)[C@H]1CC[C@@H]1[C@H]2C[C@@H]2OC(=O)[C@@]1(O)[C@@H]2O [FIBRAURETIN B] | 14% | 20.1% | 24.03% | 23.43% | 26.73% | 28.34% | 11.45% | 19.17% | 16.73% | 15.21% | 17.69% | 18.16% | – |
| C[C@@]12C[C@H](c3ccoc3)OC(=O)[C@@H]1CC[C@]1(C)[C@H]2[C@@H]2OC(=O)[C@@]1(O)[C@H]1O[C@@H]21 [CHASMANTHIN] | 15.39% | 18.46% | 22.41% | 23.99% | 31.6% | 32.49% | 13.15% | 18.75% | 21.76% | 21.23% | 23.73% | 20.71% | – |
| C[C@@]12C[C@H](c3ccoc3)OC(=O)C1=CC[C@]1(C)[C@H]2[C@@H]2OC(=O)[C@@]1(O[C@@H]1O[C@H](CO)[C@@H](O)[C@H](O)[C@H]1O)[C@H]1O[C@@H]21 [FIBRAURINOSIDE] | 17.12% | 18.18% | 18.99% | 20.36% | 20.89% | 18.48% | 18.67% | 23.03% | 25.07% | 25.03% | 25.25% | 24.8% | Dose-dependent effect |
| C[C@@]12C[C@H](c3ccoc3)OC(=O)C1=CC[C@]1(C)[C@H]2[C@H]2C=C[C@]1(O[C@@H]1O[C@H](CO)[C@@H](O)[C@H](O)[C@H]1O)C(=O)O2 [FIBLEUCINOSIDE] | 15.64% | 18.8% | 24.26% | 22.82% | 24.01% | 23.88% | 14.91% | 19.05% | 19.82% | 21.31% | 22.01% | 20.11% | – |
| C[C@@]12C[C@H](c3ccoc3)OC(=O)[C@@H]1[C@@H](O)C[C@]1(C)[C@H]2[C@@H]2OC(=O)[C@@]1(O)[C@H]1O[C@@H]21 | – | – | – | – | – | – | – | – | – | – | – | – | Dose-dependent effect |
